Source: PMC9101728, “Isolation and HPLC Quantitative Determination of 5α-Reductase Inhibitors from Tectona grandis L.f. Leaf Extract” (Molecules, 2022)
“And” between values parts separate entries of the source, which are not always exact repeats. Equal entries are not always repeated. Where two headings read alike, the source gives them in different places.

How the values were obtained:
5α-reductase [1] = target: T1, 5α-reductase (Homo sapiens, UniProt P18405); test: Enzymatic 5α-reductase inhibition assay (conversion of testosterone to DHT, LC-MS), crude enzyme from LNCaP cells; type: biochemical; set-up: adding 80 µL of homogenized crude enzyme (equivalent to 75 µg protein); host or cells: LNCaP cells, sonicated homogenate used as crude enzyme; details: for IC50: isolated compounds, LNCaP cell crude enzyme, mean ± SD of triplicate, read-out: IC50 against 5α-reductase (converted); for 5α-reductase inhibitory activity (in words): qualitative statement
T1 sequence (P18405 1-259): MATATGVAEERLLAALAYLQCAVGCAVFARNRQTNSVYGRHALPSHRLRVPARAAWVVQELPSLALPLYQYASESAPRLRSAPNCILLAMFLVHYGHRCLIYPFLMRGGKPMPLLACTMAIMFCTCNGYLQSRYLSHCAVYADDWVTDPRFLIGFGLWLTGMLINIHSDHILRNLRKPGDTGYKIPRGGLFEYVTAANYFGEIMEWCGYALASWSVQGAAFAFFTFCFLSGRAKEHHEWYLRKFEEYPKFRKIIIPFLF
Description: The steroid 5α-reductase inhibitory activity of samples on the conversion of testosterone to DHT was determined using LNCaP cell as a source of enzyme.
5α-reductase was prepared as a crude enzyme from the androgen-dependent LNCaP cells (ATCC® CRL-1740^TM) using the procedure as described by Fachrunniza et al., which was modified from Srivilai et al.. Briefly, the LNCaP cells were cultured in a 175 cm^2 culture flask at 37 °C under a 5% CO2 humidified atmosphere and cultured until reaching approximately 80% confluency. The medium was removed and the cells were rinsed with tris-HCl buffer solution, pH 7.4 (containing 10 mM Tris-HCl buffer; 50 mM KCl; 1 mM EDTA; 0.5 mM phenylmethanesulfonyl fluoride). The cells were then scraped off and centrifuged at 1900× g for 10 min. The cell pellets were collected and re-suspended in tris-HCl buffer solution pH 7.4 to a concentration of ≥9 × 10^7 cells/mL and the resultant cell pellets were kept in an ice bath and homogenized using a sonication probe. The total protein content in the homogenized crude enzyme was not less than 75 µg protein equivalent in this 5α-reductase inhibitory assay, which was measured using the Pierce bicinchoninic acid (BCA) protein assay (Pierce, Rockford, IL, USA).
The in vitro inhibitory activity of the samples against the conversion of testosterone to DHT by 5α-reductase was carried out according to the method described by Srivilai et al.. The DHT formation after the enzymatic reaction was determined using liquid chromatography mass spectrometry (LC-MS) to measure 5α-reductase activity. […] In the assay, the reaction was performed in U-shaped 96-deep-well plates covered by well-cap mats to create a solution that contained 10 µL of the tested sample dissolved in dimethyl sulfoxide (DMSO), 20 µL of testosterone (34.7 µM in propylene glycol and water), and 50 µL of β-nicotinamide adenine dinucleotide phosphate (NADPH, 1 mM in tris-HCl buffer pH 7.4). The enzymatic reaction was started by adding 80 µL of homogenized crude enzyme (equivalent to 75 µg protein), and the final volume was adjusted to 200 µL by adding 40 µL of tris-HCl buffer pH 7.4. The reaction was maintained in a water bath with a shaker at 37 °C for 60 min and then the reaction was stopped by adding 300 µL of hydroxylamine hydrochloride (HM) (10 mg/mL in 80% v/v ethanol). The solution was then incubated for another 60 min at 60 °C to completely derivatize all the DHT that was produced. After incubation, the solution was centrifuged at 1700× g for 10 min and the supernatant was collected for quantitated DHT production by LC-MS. Two control groups, C0 and C60, were prepared with all the solutions, including 10 µL of DMSO, but no test sample. Control group C0 was stopped (by adding HM) before the enzymatic incubation at 0 min, while the control group C60 continued with the enzymatic reaction and was stopped after 60 min of incubation. The DHT production was determined using LC-MS. The inhibition of tested sample was determined by measuring the area under the curve (AUC) of extracted ion chromatogram (EIC) of derivatized-DHT (m/z [M + H]^+, 306.2428) which was used to calculate the enzymatic reaction inhibition by the following Equation (1):(1) 5α-reductase inhibitory activity (%)= [1 −AUC of sample−AUC of C0/AUC of C60 −AUC of C0] ×100

5α-reductase [2] = target: T1, 5α-reductase; details: read-out: IC50 against 5α-reductase; positive controls; same assay system; cited from earlier work

Row | Compound | IC50 (5α-reductase [1]) [µM] | 5α-reductase inhibitory activity (in words) (5α-reductase [1]) | IC50 (5α-reductase [2])
1 | CC1=C(CC/C(C)=C/C(=O)O)[C@@]2(C)CCCC(C)(C)[C@@H]2CC1 [Compound 1, (+)-eperua-8,13-dien-15-oic acid] | 14.2 | potent 5α-reductase inhibitory activity | 
2 | CC1=CC[C@H]2C(C)(C)CCC[C@]2(C)[C@H]1CC/C(C)=C/C(=O)O [Compound 2, (+)-eperua-7,13-dien-15-oic acid] | 14.6 | potent 5α-reductase inhibitory activity | 
3 | C=C(C)[C@@H]1CC[C@]2(C)CC[C@]3(C)[C@H](CC[C@@H]4[C@@]5(C)CC[C@H](O)C(C)(C)[C@@H]5CC[C@]43C)[C@@H]12 [Compound 3, lupeol] | > 400 | weak inhibitory activity | 
4 | CC(C)(C)NC(=O)[C@H]1CC[C@H]2[C@@H]3CC[C@H]4NC(=O)C=C[C@]4(C)[C@H]3CC[C@]12C [Finasteride] |  |  | 0.752 µM and 0.73 µM
